Holding throughout (format): in vivo
Assay [1] is described as follows: Sweetness intensity in 150 ppm Reb.A in water, four trained experts (Example 9). The method, then:
Example 9: Three samples were prepared and compared with 150 ppm Reb.A (PureCircle) in water; equisweet to 3.5% sucrose (in red, FIG. 9). The first sample comprised 150 ppm Reb.A with 10 ppm Naringenin. The second sample was a 150 ppm Reb.A with 25 ppm Naringenin. The third sample comprised 150 ppm Reb.A with 50 ppm Naringenin. All samples were tested for sweetness intensity at room Temperature by four experts especially trained to evaluate sweet products.

Assay [2] in a line: Tasting of Naringenin alone and combined with sweeteners (summary statements). Particulars: combined with other sweeteners, some embodiments. As to the method: However, when combined with others sweeteners, Naringenin provides sweetness enhancement to composition comprising a sweetener. In some embodiments, Naringenin provides a sweetness equivalent to 1-2° brix of sucrose equivalents.

The nature of assay [3]: Sweetness intensity in sucrose solution, thirty participants (Example 2). The settings on record: 125 ppm Naringenin in 5% sucrose solution in water. The method, then:
Example 2. Two samples were prepared. The first sample was a 6% sucrose solution in water. The second sample was a 5% sucrose solution in water with 125 ppm Naringenin. The samples were tested for sweetness intensity by thirty participants.

The nature of assay [4]: Sweetness intensity in 300 ppm Reb.A in water, four trained experts (Example 10). The method, then: Example 10: Six samples were prepared and compared with 300 ppm Reb.A in water; 100% sweetness level (in red, FIG. 10). The first sample comprised 300 ppm Reb. A with 10 ppm Naringenin. The second sample was a 300 ppm Reb.A with 25 ppm Naringenin. The third sample was a 300 ppm Reb.A with 50 ppm Naringenin. The fourth sample comprised 300 ppm Reb.A with 75 ppm Naringenin. The fifth sample was a 300 ppm Reb.A with 100 ppm Naringenin. The sixth sample was a 300 ppm Reb.A with 150 ppm Naringenin. All samples were tested for sweetness intensity at room Temperature by four experts especially trained to evaluate sweet products. […] On the other hand, the addition of 100 and 150 ppm Naringenin to 300 ppm Reb.A solution has a small loss of sweetness (8%).

The structures appear in SMILES notation.

On to `O=C1C[C@@H](c2ccc(O)cc2)Oc2cc(O)cc(O)c21` [Naringenin, 2,3-Dihydro-5,7-dihydroxy-2(-4-hydroxyphenyl)-4H-1-bcmzopyran-4-one], for which, in assay [1] (50 ppm Naringenin in 150 ppm Reb.A solution, room temperature), the “sweetness intensity reached, as sucrose level” value came out at 4 % sucrose. The “sweetness provided, sucrose equivalents” value in assay [2] is 1-2 ° brix of sucrose equivalents. Moreover, in assay [3], the “sweetness level reached, as sucrose solution without Naringenin” value is recorded as around 6 % sucrose. In addition, the “equisweet Reb.A level in water” value in assay [4] (10 to 75 ppm Naringenin in 300 ppm Reb.A solution) was 350 ppm Reb.A. Further, the sweetness enhancement effect in assay [4] (10 to 75 ppm Naringenin in 300 ppm Reb.A solution, 300 ppm Reb.A = 100%) was 17%. The loss of sweetness in assay [4] (100 and 150 ppm Naringenin in 300 ppm Reb.A solution, 300 ppm Reb.A = 100%) is on record as 8%.

Turning to `C=C1C[C@@]23CC[C@H]4[C@@](C)(CCC[C@@]4(C)C(=O)O[C@@H]4O[C@H](CO)[C@@H](O)[C@H](O)[C@H]4O)[C@@H]2CC[C@]1(O[C@@H]1O[C@H](CO)[C@@H](O)[C@H](O[C@@H]2O[C@H](CO)[C@@H](O)[C@H](O)[C@H]2O)[C@H]1O[C@@H]1O[C@H](CO)[C@@H](O)[C@H](O)[C@H]1O)C3` [Reb.A, rebaudioside A, reference compound], the equisweet sucrose level in assay [1] (150 ppm Reb.A in water without Naringenin) is given as 3.5 % sucrose.

The record behind these values is US20250008996A1, “Flavored Food and Beverage Products” (Firmenich SA, priority 2014, published 2025).
